Reference: the NIST ThermoML archive (doi:10.1016/j.jct.2016.08.022)

Assay: molar heat capacity at constant pressure
Conditions: 101.33 kPa, Small (less than 1 g) adiabatic calorimetry

CCC(=O)O[C@]1(C(=O)COC(C)=O)CC[C@H]2[C@@H]3C[C@H](C)C4=CC(=O)C=C[C@]4(C)[C@H]3[C@@H](O)C[C@@]21C [Methylprednisolone aceponate]
Conditions	molar heat capacity at constant pressure [J/K/mol]
5 K, Crystal 2	1.87
7.53 K, Crystal 2	6.019
7.84 K, Crystal 2	6.56
8.09 K, Crystal 2	7.014
8.41 K, Crystal 2	7.67
8.68 K, Crystal 2	8.278
9 K, Crystal 2	8.893
9.32 K, Crystal 2	9.535
9.64 K, Crystal 2	10.2
9.98 K, Crystal 2	10.97
10 K, Crystal 2	11
10.31 K, Crystal 2	11.76
10.64 K, Crystal 2	12.47
10.99 K, Crystal 2	13.1
11.33 K, Crystal 2	13.78
11.69 K, Crystal 2	14.32
12.05 K, Crystal 2	15.03
12.88 K, Crystal 2	16.64
14.18 K, Crystal 2	19.38
15 K, Crystal 2	21.09
15.44 K, Crystal 2	22.08
16.83 K, Crystal 2	25.33
18.19 K, Crystal 2	28.78
19.58 K, Crystal 2	32.36
20 K, Crystal 2	33.51
22.18 K, Crystal 2	39.37
25 K, Crystal 2	47.69
25.63 K, Crystal 2	49.56
29.09 K, Crystal 2	59.46
30 K, Crystal 2	61.69
32.6 K, Crystal 2	68.53
36.13 K, Crystal 2	78.23
39.68 K, Crystal 2	88.41
40 K, Crystal 2	89.06
43.24 K, Crystal 2	97.8
46.82 K, Crystal 2	106.2
50 K, Crystal 2	115
50.41 K, Crystal 2	116.3
54 K, Crystal 2	126.6
57.6 K, Crystal 2	136
60 K, Crystal 2	142.6
61.21 K, Crystal 2	145.2
64.82 K, Crystal 2	155
68.42 K, Crystal 2	163.9
70 K, Crystal 2	167.5
72.02 K, Crystal 2	173
75.66 K, Crystal 2	181.2
79.32 K, Crystal 2	190.9
80 K, Crystal 2	193.1
82.52 K, Crystal 2	200.1
82.95 K, Crystal 2	200.9
85.14 K, Crystal 2	206.2
86.58 K, Crystal 2	209.8
87.56 K, Crystal 2	212.6
89.97 K, Crystal 2	218.2
90 K, Crystal 2	218.2
92.39 K, Crystal 2	223.5
94.8 K, Crystal 2	229
97.21 K, Crystal 2	234.8
97.3 K, Crystal 2	235.6
99.62 K, Crystal 2	240.5
100 K, Crystal 2	241.2
100.7 K, Crystal 2	243.6
102.02 K, Crystal 2	245.8
104.08 K, Crystal 2	251
104.42 K, Crystal 2	251.6
106.93 K, Crystal 2	257.8
107.83 K, Crystal 2	258.9
109.22 K, Crystal 2	263
109.71 K, Crystal 2	263.2
110 K, Crystal 2	264.5
111.62 K, Crystal 2	268.1
112.99 K, Crystal 2	270.3
114.02 K, Crystal 2	273.7
116 K, Crystal 2	277
116.42 K, Crystal 2	278.5
118.81 K, Crystal 2	283.7
119.02 K, Crystal 2	283.2
120 K, Crystal 2	286.4
121.2 K, Crystal 2	288.9
122.04 K, Crystal 2	290.1
123.59 K, Crystal 2	295.1
125.06 K, Crystal 2	297.7
125.98 K, Crystal 2	300
128.08 K, Crystal 2	305.6
128.36 K, Crystal 2	306
130 K, Crystal 2	309.4
130.74 K, Crystal 2	310.7
131.09 K, Crystal 1	312.1
133.12 K, Crystal 1	311.6
134.11 K, Crystal 1	310
135.5 K, Crystal 1	309.5
137.13 K, Crystal 1	310.6
137.88 K, Crystal 1	312.2
140 K, Crystal 1	315.4
140.15 K, Crystal 1	315.8
140.25 K, Crystal 1	315.6
142.62 K, Crystal 1	319.4
143.15 K, Crystal 1	320.6
144.98 K, Crystal 1	324.5
146.15 K, Crystal 1	326.3
147.34 K, Crystal 1	328.3
149.14 K, Crystal 1	331.8
149.69 K, Crystal 1	333.1
150 K, Crystal 1	333
152.05 K, Crystal 1	336.9
152.14 K, Crystal 1	336.7
154.41 K, Crystal 1	341
155.13 K, Crystal 1	342
156.76 K, Crystal 1	344
158.09 K, Crystal 1	347.4
159.09 K, Crystal 1	348.8
160 K, Crystal 1	351
161.07 K, Crystal 1	352.5
161.43 K, Crystal 1	353.5
163.77 K, Crystal 1	357.7
164.05 K, Crystal 1	358.2
166.12 K, Crystal 1	361.8
167.01 K, Crystal 1	363.8
168.46 K, Crystal 1	366.9
169.98 K, Crystal 1	368.9
170 K, Crystal 1	368.7
170.8 K, Crystal 1	371.1
172.94 K, Crystal 1	373.7
173.13 K, Crystal 1	375
175.46 K, Crystal 1	378.6
175.89 K, Crystal 1	379.5
177.8 K, Crystal 1	381
178.84 K, Crystal 1	383.9
180 K, Crystal 1	386.3
180.1 K, Crystal 1	385.2
181.78 K, Crystal 1	389.3
182.38 K, Crystal 1	390.4
184.68 K, Crystal 1	394.6
184.72 K, Crystal 1	394.9
186.99 K, Crystal 1	398.4
187.66 K, Crystal 1	399.4
189.31 K, Crystal 1	403.5
190 K, Crystal 1	404
190.59 K, Crystal 1	405.5
191.61 K, Crystal 1	407.4
193.51 K, Crystal 1	410.5
193.93 K, Crystal 1	410.9
196.2 K, Crystal 1	415.5
196.43 K, Crystal 1	414.4
198.49 K, Crystal 1	418.9
199.33 K, Crystal 1	420.1
200 K, Crystal 1	421.8
200.78 K, Crystal 1	422.8
202.47 K, Crystal 1	425.8
203.07 K, Crystal 1	427.7
205.36 K, Crystal 1	432.9
205.78 K, Crystal 1	432.4
207.65 K, Crystal 1	435.8
209.13 K, Crystal 1	438
209.94 K, Crystal 1	439.7
210 K, Crystal 1	439.9
212.24 K, Crystal 1	444.3
212.49 K, Crystal 1	444.8
214.54 K, Crystal 1	448.4
215.85 K, Crystal 1	450.6
217 K, Crystal 1	451.2
219.13 K, Crystal 1	456
219.21 K, Crystal 1	456.5
220 K, Crystal 1	458.2
221.43 K, Crystal 1	460.8
222.56 K, Crystal 1	463.6
223.73 K, Crystal 1	465.6
226.03 K, Crystal 1	469.3
228.32 K, Crystal 1	473.5
230 K, Crystal 1	476.5
230.63 K, Crystal 1	477.8
232.91 K, Crystal 1	481.1
235.22 K, Crystal 1	485.8
237.52 K, Crystal 1	490.6
239.83 K, Crystal 1	495.3
240 K, Crystal 1	494.9
242.15 K, Crystal 1	498.7
244.46 K, Crystal 1	503.6
246.77 K, Crystal 1	507.1
249.09 K, Crystal 1	511.5
250 K, Crystal 1	513.6
251.4 K, Crystal 1	516.4
253.72 K, Crystal 1	521
255.92 K, Crystal 1	524.6
256.03 K, Crystal 1	524.6
258.35 K, Crystal 1	529.7
259.52 K, Crystal 1	530.8
260 K, Crystal 1	532.3
260.9 K, Crystal 1	534.6
262.9 K, Crystal 1	537.3
262.99 K, Crystal 1	536.3
265.31 K, Crystal 1	542.1
266.27 K, Crystal 1	542.9
267.63 K, Crystal 1	546.6
269.63 K, Crystal 1	548.4
269.94 K, Crystal 1	551.7
270 K, Crystal 1	550.2
271.74 K, Crystal 1	553.4
272.99 K, Crystal 1	555.5
274.21 K, Crystal 1	556.6
276.35 K, Crystal 1	562.2
276.54 K, Crystal 1	562
278.86 K, Crystal 1	565.7
279.7 K, Crystal 1	568.4
280 K, Crystal 1	568.6
281.15 K, Crystal 1	570.9
283.05 K, Crystal 1	574.7
283.4 K, Crystal 1	575.9
285.69 K, Crystal 1	580.8
286.39 K, Crystal 1	581.4
287.93 K, Crystal 1	584.1
289.74 K, Crystal 1	587.6
290 K, Crystal 1	588.2
290.2 K, Crystal 1	587.9
292.47 K, Crystal 1	592.6
293.07 K, Crystal 1	594.1
294.75 K, Crystal 1	598.5
296.41 K, Crystal 1	600.8
297.02 K, Crystal 1	602.8
298.15 K, Crystal 1	604.8
299.28 K, Crystal 1	607.2
299.74 K, Crystal 1	606.1
300 K, Crystal 1	608.6
301.54 K, Crystal 1	611.3
303.07 K, Crystal 1	615.7
303.8 K, Crystal 1	617.2
306.05 K, Crystal 1	621.4
306.4 K, Crystal 1	622.2
308.26 K, Crystal 1	624.1
309.65 K, Crystal 1	627.8
310 K, Crystal 1	628.6
310.51 K, Crystal 1	629.5
312.76 K, Crystal 1	633
312.99 K, Crystal 1	634.1
315.01 K, Crystal 1	636.6
316.33 K, Crystal 1	639.9
317.25 K, Crystal 1	644.1
319.5 K, Crystal 1	647.2
319.67 K, Crystal 1	646.8
320 K, Crystal 1	647.5
321.75 K, Crystal 1	651.6
323.01 K, Crystal 1	652.2
324 K, Crystal 1	655.2
326.24 K, Crystal 1	660
326.36 K, Crystal 1	659.5
328.49 K, Crystal 1	664.4
329.71 K, Crystal 1	665.6
330 K, Crystal 1	666.6
330.74 K, Crystal 1	670
332.99 K, Crystal 1	672.4
333.06 K, Crystal 1	673.1
335.24 K, Crystal 1	679.6
336.41 K, Crystal 1	679.8
337.49 K, Crystal 1	684.3
339.74 K, Crystal 1	691.4
339.75 K, Crystal 1	688.9
340 K, Crystal 1	691.3
341.99 K, Crystal 1	697.1
343.1 K, Crystal 1	701.5
346 K, Crystal 1	713.9
346.44 K, Crystal 1	717.2
